Patent US20120142771A1, “BIPHENYLACETAMIDE DERIVATIVE” (Dainippon Sumitomo Pharma Co., Ltd., priority 2008, published 2012)

Columns and labels:
[1] = test system: maximum electroshock seizure (MES) model; experiment: Maximum electroshock seizure (MES) model test; assay type: in vivo, mice; conditions: for MES (positive number/tested number) / responders at 100 mg/kg / responders at 50 mg/kg: Slc: ddY male mice, 3 per group, electrical stimulation 1 hour after administration, inhibition of hind limb extension; for responders at 100 mg/kg / responders at 50 mg/kg: Mus musculus, po, 1 h, read-out: MES (positive number/tested number) (converted)
Source text: In order to evaluate the antiepileptic activity of each drug, maximum electroshock seizure (MES) model, subcutaneously pentetrazol-injected model (scPTZ), and amygdala kindling model in rats were used because they show a good clinical prediction.
Test 1: Test with Maximum Electroshock Seizure (MES) Model
Test 1 evaluates the anticonvulsant action of medicaments. Animal model used herein represents the clinical phenotypes of generalized tonic seizure and secondarily generalized tonic-clonic seizure. Test compounds (50 or 100 mg/kg) were orally administered to Slc: ddY male mice (3 mice in each group, body weight 20-30 g). After an hour of administration, their corneas were electrically stimulated (60 Hz, 25 mA, 0.2 second) to induce tonic convulsion (tonic extensor in their hind limbs). […] To the control mice, 0.5% tragacanth solution or 0.5% methylcellulose solution was administered.

[2] = test system: subcutaneously pentetrazol-injected model (scPTZ); experiment: Subcutaneously pentetrazol-injected model (scPTZ) test; assay type: in vivo, mice; conditions: pentetrazol 85 mg/kg s.c. after 1 hour; for responders at 100 mg/kg / responders at 50 mg/kg: Mus musculus, po, 1 h, read-out: scPTZ (positive number/tested number) (converted); for responders at 100 mg/kg / scPTZ (positive number/tested number) / responders at 50 mg/kg: Slc: ddY male mice, 3 per group, observed 30 minutes for clonic convulsion
Source text: In order to evaluate the antiepileptic activity of each drug, maximum electroshock seizure (MES) model, subcutaneously pentetrazol-injected model (scPTZ), and amygdala kindling model in rats were used because they show a good clinical prediction. […] Test with Subcutaneously Pentetrazol-Injected Model (scPTZ) Similar to Test 1, Test 2 evaluates the anticonvulsant action of medicaments. However, unlike Test 1, animal model used herein represents the clinical phenotypes of generalized absence seizure and myoclonic seizure. Test compounds (50 or 100 mg/kg) were orally administered to Slc: ddY male mice (3 mice in each group, body weight 20-30 g). After an hour, pentetrazol (85 mg/kg) was subcutaneously administered. […] To the control mice, 0.5% tragacanth solution or 0.5% methylcellulose solution was administered.

SMILES	responders at 100 mg/kg ([1]; 100 mg/kg oral)	responders at 100 mg/kg ([2]; 100 mg/kg oral)	responders at 50 mg/kg ([1]; 50 mg/kg oral)	responders at 50 mg/kg ([2]; 50 mg/kg oral)	other results
NC(=O)C(O)c1ccccc1-c1ccccc1F (single isomer, unassigned) [Example 213, 2-(2′-Fluorobiphenyl-2-yl)-2-hydroxyacetamide]	100%	33.3%			MES (positive number/tested number) ([1]; 50 mg/kg oral): 0/3
NC(=O)C(O)c1ccccc1-c1ccccc1F (single isomer, unassigned) [Example 214, 2-(2′-Fluorobiphenyl-2-yl)-2-hydroxyacetamide]					MES (positive number/tested number) ([1]; 50 mg/kg oral): 2/3; MES (positive number/tested number) ([1]; 100 mg/kg oral): 3/3; scPTZ (positive number/tested number) ([2]; 100 mg/kg oral): 1/3
NC(=O)C(O)c1ccccc1-c1cc(F)cc(Cl)c1 (single isomer, unassigned) [Example 217, 2-(3′-Chloro-5′-fluorobiphenyl-2-yl)-2-hydroxyacetamide]					MES (positive number/tested number) ([1]; 50 mg/kg oral): 2/3; scPTZ (positive number/tested number) ([2]; 50 mg/kg oral): 1/3; scPTZ (positive number/tested number) ([2]; 100 mg/kg oral): 3/3
NC(=O)C(O)c1ccccc1-c1cc(F)cc(Cl)c1 (single isomer, unassigned) [Example 218, 2-(3′-Chloro-5′-fluorobiphenyl-2-yl)-2-hydroxyacetamide]	100%				MES (positive number/tested number) ([1]; 50 mg/kg oral): 1/3; scPTZ (positive number/tested number) ([2]; 50 mg/kg oral): 1/3; scPTZ (positive number/tested number) ([2]; 100 mg/kg oral): 2/3
NC(=O)C(O)c1ccccc1-c1ccccc1Cl (single isomer, unassigned) [Example 220, 2-(2′-chlorobiphenyl-2-yl)-2-hydroxyacetamide]	100%	100%	100%	33.3%	
CNC(=O)Cc1ccccc1-c1ccc(C(F)(F)F)cc1 [Example 2, N-methyl-2-[4′-(trifluoromethyl)biphenyl-2-yl]acetamide]	100%	0%	100%		
CN(C)C(=O)Cc1ccccc1-c1ccc(C(F)(F)F)cc1 [Example 3, N,N-dimethyl-2-[4′-(trifluoromethyl)biphenyl-2-yl]acetamide]	100%	33.3%	100%		
NC(=O)Cc1ccccc1-c1cccc(C(F)(F)F)c1 [Example 4, 2-[3′-(trifluoromethyl)biphenyl-2-yl]acetamide]	66.7%	66.7%	0%	0%	
CNC(=O)Cc1ccccc1-c1cccc(C(F)(F)F)c1 [Example 5, N-methyl-2-[3′-(trifluoromethyl)biphenyl-2-yl]acetamide]	100%	66.7%	0%	33.3%	
NC(=O)Cc1ccccc1-c1ccccc1C(F)(F)F [Example 6]	100%	33.3%	0%		
CNC(=O)Cc1ccccc1-c1ccccc1C(F)(F)F [Example 7, N-methyl-2-[2′-(trifluoromethyl)biphenyl-2-yl]acetamide]	100%	66.7%	66.7%	0%	
CCNC(=O)Cc1ccccc1-c1ccccc1C(F)(F)F [Example 8, N-ethyl-2-[2′-(trilluoromethyl)biphenyl-2-yl]acetamide]	100%	66.7%	0%	0%	
CN(C)C(=O)Cc1ccccc1-c1ccccc1C(F)(F)F [Example 9]	33.3%	66.7%		0%	
NC(=O)Cc1ccccc1-c1ccc(Cl)cc1 [Example 10]	100%	33.3%	33.3%		
CNC(=O)Cc1ccccc1-c1ccc(Cl)cc1 [Example 11]	100%	33.3%	0%		
CN(C)C(=O)Cc1ccccc1-c1ccc(Cl)cc1 [Example 12]	100%	33.3%	0%		
CNC(=O)Cc1ccccc1-c1cccc(Cl)c1 [Example 14]	100%	0%	0%		
CN(C)C(=O)Cc1ccccc1-c1cccc(Cl)c1 [Example 15]	66.7%	0%	0%		

SMILES	responders at 100 mg/kg ([1]; 100 mg/kg oral)	responders at 100 mg/kg ([2]; 100 mg/kg oral)	responders at 50 mg/kg ([1]; 50 mg/kg oral)	responders at 50 mg/kg ([2]; 50 mg/kg oral)	other results
CNC(=O)Cc1ccccc1-c1ccccc1Cl [Example 17]	0%	33.3%			
CCNC(=O)Cc1ccccc1-c1ccccc1Cl [Example 18]	100%	33.3%	0%		
NC(=O)Cc1ccccc1-c1cccc(Cl)c1Cl [Example 19]	66.7%	0%	33.3%		
NC(=O)Cc1ccccc1-c1cccc(F)c1F [Example 20, 2-(2′,3′-difluorobiphenyl-2-yl)acetamide]	100%	66.7%	66.7%	66.7%	anticonvulsant action in maximum electroshock seizure (MES) model test ([1]; mice, oral 50 or 100 mg/kg, 1 hour after administration): anticonvulsant action was observed; anticonvulsant action in subcutaneously pentetrazol-injected model (scPTZ) test ([2]; mice, oral 50 or 100 mg/kg): anticonvulsant action was observed
NC(=O)Cc1ccccc1-c1ccc(F)c(F)c1 [Example 21, 2-(3′,4′-difluorobiphenyl-2-yl)acetamide]	100%	100%	33.3%	0%	
NC(=O)Cc1ccccc1-c1ccc(F)cc1 [Example 22, 2-(4′-fluorobiphenyl-2-yl)acetamide]	100%	33.3%	66.7%		
CNC(=O)Cc1ccccc1-c1ccc(F)cc1 [Example 23, 2-(4′-fluorobiphenyl-2-yl)-N-methylacetamide]	100%	33.3%	100%		
CN(C)C(=O)Cc1ccccc1-c1ccc(F)cc1 [Example 24]	100%	0%	33.3%		
CNC(=O)Cc1ccccc1-c1cccc(F)c1 [Example 26, 2-(3′-fluorobiphenyl-2-yl)-N-methylacetamide]	100%	0%	100%		
CCNC(=O)Cc1ccccc1-c1cccc(F)c1 [Example 27]	100%	33.3%	0%		
CNC(=O)Cc1ccccc1-c1ccccc1F [Example 28, 2-(2′-fluorobiphenyl-2-yl)-N-methylacetamide]	100%	66.7%	0%	0%	
CCNC(=O)Cc1ccccc1-c1ccccc1F [Example 29]	66.7%	33.3%	0%		
CN(C)C(=O)Cc1ccccc1-c1ccccc1F [Example 30, 2-(2′-fluorobiphenyl-2-yl)-N,N-dimethylacetamide]	100%	66.7%	0%	33.3%	
CNC(=O)Cc1ccccc1-c1cccc(C)c1 [Example 31, N-methyl-2-(3′-methylbiphenyl-2-yl)-acetamide]	0%	66.7%		33.3%	
NC(=O)Cc1ccc(C(F)(F)F)cc1-c1ccccc1 [Example 32]	100%	0%	33.3%		
CNC(=O)Cc1ccc(C(F)(F)F)cc1-c1ccccc1 [Example 33]	66.7%	33.3%	33.3%		
NC(=O)Cc1cc(OC(F)(F)F)ccc1-c1ccccc1 [Example 34]	0%	66.7%		33.3%	
CSc1cccc(-c2ccccc2CC(N)=O)c1 [Example 94]		33.3%			
